Experimental data as given in patent publication US20230372331A1, “PHARMACEUTICAL COMPOSITION” (ANXO PHARMACEUTICAL CO., LTD., priority 2022, published 2023).
Structures can show the parent of a compound that is named as a salt.

Assay: Solubility of cariprazine forms in acetate medium
Format: physicochemical
From the text: Different drug solubilities of cariprazine HCl and cariprazine base could be the reason to affect the release of cariprazine in the pharmaceutical compositions. […] The release profile of cariprazine in pharmaceutical composition with combo cariprazine base and cariprazine HCl were between pharmaceutical compositions B-752H-TF8-N and C-752H-TF8-N.

Structure (SMILES): CN(C)C(=O)N[C@H]1CC[C@H](CCN2CCN(c3cccc(Cl)c3Cl)CC2)CC1 [Cariprazine HCl, cariprazine HCl]
- solubility in acetate medium (in words): higher solubility in acetate medium than cariprazine base
